Reference: PubChem BioAssay (NCI)
Where “and” joins values, the source holds several entries; their conditions need not be identical. Identical values can stand only once.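 These data come from cells grown in 96-well plates and exposed to compound for 48 hours at five concentrations. GI50 is the concentration that inhibits growth by half. The concentration for full growth arrest is given as TGI.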

What was measured:
Assay in all cases: inhibition of tumour cell growth, NCI panel, 48 h
SK-MEL-5 melanoma = tested on: SK-MEL-5 melanoma
NCI-H23 lung = tested on: NCI-H23 lung
SK-MEL-2 melanoma = tested on: SK-MEL-2 melanoma
OVCAR-3 ovarian = tested on: OVCAR-3 ovarian
KM12 colon = tested on: KM12 colon
SNB-75 CNS = tested on: SNB-75 CNS
MDA-MB-231 breast = tested on: MDA-MB-231 breast
TK-10 renal = tested on: TK-10 renal
BT-549 breast = tested on: BT-549 breast
NCI-H460 lung = tested on: NCI-H460 lung

| Structure (SMILES) | GI50 (SK-MEL-5 melanoma) | TGI (SK-MEL-5 melanoma) | GI50 (NCI-H23 lung) | TGI (NCI-H23 lung) | GI50 (SK-MEL-2 melanoma) | TGI (SK-MEL-2 melanoma) | GI50 (OVCAR-3 ovarian) | TGI (OVCAR-3 ovarian) | GI50 (KM12 colon) | TGI (KM12 colon) | GI50 (SNB-75 CNS) | TGI (SNB-75 CNS) | GI50 (MDA-MB-231 breast) | TGI (MDA-MB-231 breast) | GI50 (TK-10 renal) | TGI (TK-10 renal) | GI50 (BT-549 breast) | TGI (BT-549 breast) | GI50 (NCI-H460 lung) | TGI (NCI-H460 lung) |
| --- | --- | --- | --- | --- | --- | --- | --- | --- | --- | --- | --- | --- | --- | --- | --- | --- | --- | --- | --- | --- |
| Cc1cc(C)c(NC(=O)c2sc3nc4c(cc3c2N)CN(Cc2ccccc2)CC4)c(C)c1 | 1.47 µM | 11.5 µM | 4.51 µM | > 100 µM | 5.59 µM | > 100 µM | 2.32 µM | 12.6 µM | 3.26 µM | 43.1 µM | 2.35 µM | 11 µM | 5.75 µM | 58.9 µM | 5.06 µM | > 100 µM | 4.05 µM | 57.6 µM | 3.29 µM | 16.3 µM |
| CN(CCO)c1ccc(N2Cc3ccccc3OC3=C2C(=O)c2c(O)ccc(O)c2C3=O)cn1 | 0.267 µM | 0.717 µM | 0.263 µM | 0.834 µM | 0.299 µM | 0.99 µM | 0.111 µM | 0.276 µM | 0.387 µM | 1.63 µM | 0.348 µM | 1.8 µM | 0.221 µM | 0.679 µM | 0.248 µM | 0.632 µM | 0.177 µM | 0.386 µM | 0.355 µM | 1.35 µM |
| O=S(=O)(Nc1ccc(F)cc1F)c1ccc(-c2cnc(C3CC3)o2)cc1 | 0.666 µM | 12.9 µM | 1.75 µM | 68.9 µM | 0.737 µM | 34.6 µM | 0.493 µM | 11.9 µM | 0.485 µM | 28.5 µM | 0.219 µM | 1.25 µM | 1.37 µM | 21.7 µM | 3.2 µM | 48.3 µM | 0.597 µM | 24 µM | 0.404 µM | 28.2 µM |
| CC[C@H]1CN2CCc3cc(OC)c(OC)cc3[C@@H]2C[C@@H]1C[C@H]1NCCc2c1[nH]c1ccc(O)cc21 | 0.0234 µM and 0.14 µM | 0.0553 µM and 0.294 µM and 0.0304 µM | 0.0177 µM and 0.0303 µM | 0.0472 µM and 0.112 µM and 0.0706 µM | 0.0228 µM | 0.052 µM and 0.0353 µM | 0.0156 µM | 0.0622 µM and 0.089 µM and 0.25 µM | 0.0507 µM and 0.0994 µM | 0.283 µM and 1.37 µM and 0.519 µM | 0.032 µM and 0.0223 µM | 0.111 µM and 0.0732 µM and 0.0544 µM | 0.0153 µM | 0.0483 µM | 0.0943 µM | 0.277 µM and 0.875 µM and 0.728 µM | 0.558 µM | 0.602 µM | 0.0252 µM and 0.0398 µM | 0.0912 µM and 0.395 µM and 0.0422 µM |
| CCN(Cc1ccccc1C)c1ccc(CO)c(Cl)c1 | 4.77 µM | 11.9 µM | 12.8 µM | 38 µM | 4.47 µM | 18.1 µM | 2.13 µM | 9.79 µM | 11.8 µM | 26.6 µM | 9.62 µM | 25 µM | 13.7 µM | 32 µM | 0.0944 µM | 0.863 µM | 15.8 µM | 30.1 µM | 0.821 µM | 12.7 µM |
| NCCSc1nc(-c2ccccc2)c(-c2ccccc2)o1 | – | > 100 µM | – | > 100 µM | – | > 100 µM | – | > 100 µM | – | > 100 µM | – | 61.4 µM | – | > 100 µM | – | > 100 µM | – | > 100 µM | – | > 100 µM |
| CN1C(=O)/C(=C/c2c(Cl)n(C)c3ccccc23)c2ccccc21 | 2.1 µM and 1.96 µM | 6.51 µM and 3.46 µM | 1.92 µM and 1.56 µM | 5.96 µM and 2.94 µM | 5 µM | – | 2.05 µM and 1.45 µM | 5.17 µM and 2.76 µM | 3.34 µM and 1.31 µM | 3.49 µM | 4.51 µM and 1.96 µM | 3.62 µM | 1.99 µM | 8.59 µM | 9.52 µM and 1.38 µM | 2.67 µM | 3.31 µM | 9.25 µM | 6.17 µM and 2.84 µM | > 100 µM |
| O[C@H](c1cc(C(F)(F)F)nc2c(C(F)(F)F)cccc12)[C@@H]1CCCCN1 | 3.64 µM | 8.09 µM | 4.75 µM | 16.6 µM | 3.26 µM | 11.9 µM | 3.38 µM | 11.5 µM | 1.63 µM | 3.34 µM | 2.21 µM | 11.5 µM | 1.78 µM | 4.08 µM | 2.85 µM | 10.4 µM | 12.1 µM | 25.5 µM | 2.28 µM | 5.28 µM |
| O=C1NC(=NCCc2cccc(Cl)c2)S/C1=C\c1ccc2ncccc2c1 | > 25 µM | > 25 µM | > 25 µM | > 25 µM | > 25 µM | > 25 µM | > 25 µM | > 25 µM | 1.32 µM | > 25 µM | > 25 µM | > 25 µM | > 25 µM | > 25 µM | > 25 µM | > 25 µM | > 25 µM | > 25 µM | > 25 µM | > 25 µM |
| CCn1sc2ccccc2c1=O | – | 25 µM | – | 34.7 µM | – | 53.9 µM | – | 29.7 µM | – | 18.8 µM | – | 26.6 µM | – | 27.2 µM | – | 30.9 µM | – | 25.7 µM | – | > 100 µM |
| COc1cc2c3c(n(CCCOC(=O)C(F)(F)F)c(=O)c2cc1OC)-c1cc2c(cc1C3=O)OCO2 | 0.402 µM | 1.24 µM | < 0.0158 µM | < 0.045 µM | 7.3 µM | > 100 µM | 0.0425 µM | 0.306 µM | 0.0296 µM | 14.6 µM | 0.0726 µM | > 100 µM | 0.127 µM | > 49.9 µM | 0.135 µM | > 100 µM | 0.202 µM | 68.6 µM | 3 µM | > 100 µM |
| Cc1[nH]c(/C=C2\C(=O)Nc3ccccc32)c(C)c1CCC(=O)O | 19.8 µM | 48.7 µM and 81.5 µM | 20.3 µM | 73.4 µM and > 100 µM | – | 38.5 µM and 38.8 µM | 28.8 µM | > 100 µM and 73.3 µM | 7.79 µM | 51.2 µM and > 100 µM | – | 56.1 µM and 59.8 µM | 20.7 µM | > 73.7 µM and 75.9 µM | 35 µM | > 100 µM | 22.5 µM | 73.9 µM and > 100 µM | 21.3 µM | 57 µM and > 100 µM |
| O=C(c1ccc(/C=C/c2n[nH]c3ccccc23)cc1)N1CCNCC1 | 6.9 µM | 18.5 µM | > 10 µM and 2.55 µM | > 10 µM and 16.9 µM | 4.53 µM and 6.85 µM | > 10 µM and 20.5 µM | 9.32 µM and 8.01 µM | > 10 µM and 24 µM | – | > 10 µM and 5.35 µM | 3.81 µM and 2.37 µM | > 10 µM and 9.14 µM | 6.04 µM and 3.62 µM | > 10 µM and 18 µM | > 10 µM and 5.29 µM | > 10 µM and 20.2 µM | 5.58 µM and 4.14 µM | > 10 µM and 13.6 µM | 1.87 µM and 1.09 µM | 3.58 µM and 12.7 µM |
